{"source": "patent US11903955B2", "about": "“Methods of treating heart failure with reduced ejection fraction” (ASTRAZENECA AB, priority 2019, dated 2024)", "tested_on": "patients with chronic heart failure with reduced ejection fraction (LVEF ≤40%)", "conditions": "for Any serious adverse event (including death), % of patients / Any serious adverse event (including death), No. of patients: safety population", "source_text": "All the patients provided written informed consent and entered a 14-day enrollment period during which the trial inclusion and exclusion criteria were checked and baseline information gathered, including findings from clinical examination and laboratory measurements. […] Investigators used an interactive voice or web response system to obtain treatment assignment. Randomization was stratified based on a diagnosis of type 2 diabetes, defined as either an established diagnosis or a HbA1c level of 6.5% or greater (≥48 mmol/mol) confirmed in a central laboratory at screening. Patients were evaluated at 14 days and 60 days after randomization, with a focus on assessment of heart failure and volume status, adverse events, and checking renal function and potassium. Further study visits took place at 4 months and at 4-month intervals thereafter. The protocol required that study drug be permanently discontinued if pregnancy or diabetic ketoacidosis occurred.\nKCCQ total symptom score was analyzed as a composite rank-based endpoint, incorporating patient vital status at 8 months along with change in score from baseline to 8 months in surviving patients, using the rank analysis of covariance method, with a corresponding win ratio used to estimate the magnitude of treatment effect.^17 The consistency of the treatment effect among 14 prespecified subgroups were assessed. The prespecified safety analyses included: serious adverse events; adverse events associated with discontinuation of study treatment; “adverse events of interest” i.e., volume depletion, renal events, major hypoglycemic events, bone fractures, diabetic ketoacidosis, amputations; Fournier's gangrene; and laboratory findings of note. […] Fisher's exact test was used to compare rates of adverse events. Analyses were performed using Stata, version 15 (College Station Tex., USA) and R version 3.5.1 (R Foundation for Statistical Computing, Vienna, Austria).", "note": "Read-outs that look alike come from different tables or passages of the source."}
{"molecule": "CCOc1ccc(Cc2cc([C@@H]3O[C@H](CO)[C@@H](O)[C@H](O)[C@H]3O)ccc2Cl)cc1", "note": "[Dapagliflozin, dapagliflozin]", "values": [{"measurement": "Any serious adverse event (including death), % of patients", "setting": "No T2DM (N = 1295)", "result": "(34.6) %"}, {"measurement": "Any serious adverse event (including death), No. of patients", "setting": "No T2DM (N = 1295)", "result": 448, "unit": "patients"}, {"measurement": "Any serious adverse event (including death), % of patients", "setting": "T2DM (N = 1073)", "result": "(41.7) %"}, {"measurement": "Any serious adverse event (including death), No. of patients", "setting": "T2DM (N = 1073)", "result": 447, "unit": "patients"}, {"measurement": "Adverse events of interest: Fournier gangrene, % of patients", "setting": "human, in vivo", "result": "(0) %"}, {"measurement": "Adverse events of interest: Fournier gangrene, No. of patients", "setting": "human, in vivo", "result": 0, "unit": "patients"}, {"measurement": "Adverse events of interest: Fracture, % of patients", "setting": "human, in vivo", "result": "(2.1) %"}, {"measurement": "Amputation, No. (%)", "setting": "human, in vivo", "result": "13 (0.5) No. (%)"}, {"measurement": "Diabetic Ketoacidosis, No. (%)", "setting": "human, in vivo", "result": "3 (0.1) No. (%)"}, {"measurement": "Discontinuation of study drug due to adverse event, No. (%)", "setting": "human, in vivo", "result": "111 (4.7) No. (%)"}, {"measurement": "Fournier gangrene, No. (%)", "setting": "human, in vivo", "result": "0 (0) No. (%)"}, {"measurement": "Fracture, No. (%)", "setting": "human, in vivo", "result": "49 (2.1) No. (%)"}, {"measurement": "Major hypoglycemia, No. (%)", "setting": "human, in vivo", "result": "4 (0.2) No. (%)"}, {"measurement": "Serious adverse events related to volume depletion, patients (%)", "setting": "human, in vivo", "result": "29 dapagliflozin treated patients (1.2%) patients (%)"}, {"measurement": "Serious renal adverse events, patients (%)", "setting": "human, in vivo", "result": "38 dapagliflozin treated patients (1.6%) patients (%)"}, {"measurement": "Fournier gangrene, No. (%)", "setting": "in vivo", "result": "No case"}, {"measurement": "amputation, cases", "setting": "in vivo", "result": "twelve"}, {"measurement": "amputation, patients", "setting": "in vivo", "result": "one"}, {"measurement": "Any serious adverse event (including death), No. (%)", "setting": "safety population n = 2368", "result": "895 (37.8) No. (%)"}]}
